Results from patent US20230203060A1 (GENFLEET THERAPEUTICS (SHANGHAI) INC., priority 2020, published 2023).

Assays:
[1] = system: phosphorylated ERK downstream of KRAS G12C in MIA PaCa2 cells; experiment: Cell p-ERK detection experiment (HTRF) in MIA PaCa2; assay type: cell-based, human; settings: Homo sapiens, MIA PaCa-2, 2 h, MIA PaCa2 cells, 2 hours with compound, Advance ERK phospho-T202/Y204 HTRF kit; read-out: p-ERK IC50
How it was run: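 KRAS G12C-mutant MIA PaCa2 cells (2.5E4 per well, overnight) exposed 2 h to a 3.16-fold compound dilution series at 0.1% DMSO. Lysates probed 4 h with HTRF antibodies to ERK phospho-T202/Y204; inhibition versus DMSO control and blank, IC50 by four-parameter fit.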

[2] = system: KRAS G12C mutant NCI-H358 cells; experiment: Cell proliferation inhibition experiment, 3D spheroid, CellTiter-Glo, NCI-H358; assay type: cell-based, human; settings: Homo sapiens, NCI-H358, 120 h, NCI-H358 (KRAS G12C mutant) 3D spheroid, 5 days with compound, CellTiter-Glo; read-out: H358 IC50
How it was run: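 Luminescence (CellTiter-Glo, 30 min incubation) was read after 5 days of compound treatment of overnight-formed spheroids of 800 H358 or 400 A549 cells in 2% FBS medium. Inhibition relative to DMSO and blank controls was fitted with a four-parameter model to yield IC50.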

IC50 [1]	IC50 [2]	SMILES
6520 nM	305 nM	C=CC(=O)N1CCN2C(=O)c3c(N4CC(C(=O)O)CC4(C)C)nc(-c4c(O)cccc4F)c(Cl)c3OC[C@H]2C1 (stereo partly drawn) [Z458, 1-((6aR)-8-acryloyl-4-chloro-3-(2-fluoro-6-hydroxyphenyl)-12-oxo-6,6a,7,8,9,10-hexahydro-12H-pyrazino[2,1-c]pyrido[3,4-f][1,4]oxazepin-1-yl)-5,5-dimethylpyrrolidine-3-carboxylic acid]
165 nM	12.4 nM	C=CC(=O)N1CCN2C(=O)c3c(N4CCC[C@@]4(C)C(=O)NC)nc(-c4c(O)cccc4F)c(Cl)c3OC[C@H]2C1 [Z462, (2S)-1-((6aR)-8-acryloyl-4-chloro-3-(2-fluoro-6-hydroxyphenyl)-12-oxo-6,6a,7,8,9,10-hexahydro-12H-pyrazino[2,1-c]pyrido[3,4-f][1,4]oxazepin-1-yl)-N,2-dimethylpyrrolidine-2-carboxamide]
523 nM	144 nM	C=CC(=O)N1CCN2C(=O)c3c(N4C[C@@H](C)N(C)C[C@@H]4C)nc(-c4ccccc4F)c(Cl)c3OC[C@H]2C1 [Z464]
11 nM	0.8 nM	C=CC(=O)N1CCN2C(=O)c3c(N4CC(N5CCN(C)CC5)CC4(C)C)nc(-c4c(O)cccc4F)c(Cl)c3OC[C@H]2C1 (stereo partly drawn) [Z467, (6aR)-8-acryloyl-4-chloro-1-(2,2-dimethyl-4-(4-methylpiperazin-1-yl)pyrrolidin-1-yl)-3-(2-fluoro-6-hydroxyphenyl)-6,6a,7,8,9,10-hexahydro-12H-pyrazino[2,1-c]pyrido[3,4-f][1,4]oxazepin-12-one]
255 nM	23 nM	C=CC(=O)N1CCN2C(=O)c3c(N4C[C@H](N5CCN(C)CC5)C[C@@H]4C)nc(-c4ccccc4F)c(Cl)c3OC[C@H]2C1 [Z470-1]
24 nM	3 nM	C=CC(=O)N1CCN2C(=O)c3c(N4C[C@@H](N5CCN(C)CC5)C[C@@H]4C)nc(-c4ccccc4F)c(Cl)c3OC[C@H]2C1 [Z470-2]
151 nM	22 nM	C=CC(=O)N1CCN2C(=O)c3c(N4C[C@@H](N(C)C)CC4(C)C)nc(-c4cccc(F)c4F)c(Cl)c3OC[C@H]2C1 [Z473-1, (R)-8-acryloyl-4-chloro-3-(2,3-difluorophenyl)-1-((S)-4-(dimethylamino)-2,2-dimethylpyrrolidin-1-yl)-6,6a,7,8,9,10-hexahydro-12H-pyrazino[2,1-c]pyrido[3,4-f][1,4]oxazepin-12-one]
90 nM	9 nM	C=CC(=O)N1CCN2C(=O)c3c(N4CC(N5CCN(C)CC5)CC4(C)C)nc(-c4ccccc4F)c(F)c3OC[C@H]2C1 (stereo partly drawn) [Z474, (6aR)-8-acryloyl-1-(2,2-dimethyl-4-(4-methylpiperazin-1-yl)pyrrolidin-1-yl)-4-fluoro-3-(2-fluorophenyl)-6,6a,7,8,9,10-hexahydro-12H-pyrazino[2,1-c]pyrido[3,4-f][1,4]oxazepin-12-one]
35 nM	2 nM	C=CC(=O)N1CCN2C(=O)c3c(N4C[C@@H](N(C)C)CC4(C)C)nc(-c4c(F)ccc(F)c4O)c(Cl)c3OC[C@H]2C1 [Z475-1, (6aR)-8-acryloyl-4-chloro-3-(3,6-difluoro-2-hydroxyphenyl)-1-((S)-4-(dimethylamino)-2,2-dimethylpyrrolidin-1-yl)-6,6a,7,8,9,10-hexahydro-12H-pyrazino[2,1-c]pyrido[3,4-f][1,4]oxazepin-12-one]
61 nM	8.1 nM	C=CC(=O)N1CCN2C(=O)c3c(N4CCN(C(=O)CC)C[C@@H]4C)nc(-c4ccccc4F)c(Cl)c3OC[C@H]2C1 [Z477, (R)-8-acryloyl-4-chloro-3-(2-fluorophenyl)-1-((S)-2-methyl-4-propionylpiperazin-1-yl)-6,6a,7,8,9,10-hexahydro-12H-pyrazino[2,1-c]pyrido[3,4-f][1,4]oxazepin-12(6aH)-one]
30 nM	5.7 nM	C=CC(=O)N1CCN2C(=O)c3c(N4C[C@@H](N5CC(OC)C5)CC4(C)C)nc(-c4ccccc4F)c(Cl)c3OC[C@H]2C1 [Z479-1, (R)-8-acryloyl-4-chloro-3-(2-fluorophenyl)-1-((S)-4-(3-methoxyazetidin-1-yl)-2,2-dimethylpyrrolidin-1-yl)-6,6a,7,8,9,10-hexahydro-12H-pyrazino[2,1-c]pyrido[3,4-f][1,4]oxazepin-12-one]
13 nM	3.4 nM	C=CC(=O)N1CCN2C(=O)c3c(N4C[C@@H](N5CC(F)C5)CC4(C)C)nc(-c4ccccc4F)c(Cl)c3OC[C@H]2C1 [Z480-1, (R)-8-acryloyl-4-chloro-1-((S)-4-(3-fluoroazetidin-1-yl)-2,2-dimethylpyrrolidin-1-yl)-3-(2-fluorophenyl)-6,6a,7,8,9,10-hexahydro-12H-pyrazino[2,1-c]pyrido[3,4-f][1,4]oxazepin-12-one]
13 nM	3.2 nM	C=CC(=O)N1CCN2C(=O)c3c(N4C[C@@H](O)CC4(C)C)nc(-c4c(N)cccc4F)c(F)c3OC[C@H]2C1 [Z481, (6aR)-8-acryloyl-3-(2-amino-6-fluorophenyl)-4-fluoro-1-((S)-4-hydroxy-2,2-dimethylpyrrolidin-1-yl)-6,6a,7,8,9,10-hexahydro-12H-pyrazino[2,1-c]pyrido[3,4-f][1,4]oxazepin-12-one]
196 nM	29.6 nM	C=CC(=O)N1CCN2C(=O)c3c(N4CC[C@@H](N(C)C)C4(C)C)nc(-c4ccccc4F)c(Cl)c3OC[C@H]2C1 [Z502-1, (6aR)-8-acryloyl-4-chloro-1-(3-(dimethylamino)-2,2-dimethylpyrrolidin-1-yl)-3-(2-fluorophenyl)-6,6a,7,8,9,10-hexahydro-12H-pyrazino[2,1-c]pyrido[3,4-f][1,4]oxazepin-12(6aH)-one]
124 nM	11 nM	C=CC(=O)N1CCN2C(=O)c3c(N4CC[C@H](N(C)C)C4(C)C)nc(-c4ccccc4F)c(Cl)c3OC[C@H]2C1 [Z502-2, (6aR)-8-acryloyl-4-chloro-1-(3-(dimethylamino)-2,2-dimethylpyrrolidin-1-yl)-3-(2-fluorophenyl)-6,6a,7,8,9,10-hexahydro-12H-pyrazino[2,1-c]pyrido[3,4-f][1,4]oxazepin-12(6aH)-one]
42 nM	9.5 nM	C=CC(=O)N1CCN2C(=O)c3c(N4CCN(C)C[C@@H]4C)nc(-c4c(N)cccc4F)c(Cl)c3OC[C@H]2C1 [Z503, (6aR)-8-acryloyl-3-(2-amino-6-fluorophenyl)-4-chloro-1-((S)-2,4-dimethylpiperazin-1-yl)-6,6a,7,8,9,10-hexahydro-12H-pyrazino[2,1-c]pyrido[3,4-f][1,4]oxazepin-12-one]
11 nM	0.8 nM	C=CC(=O)N1CCN2C(=O)c3c(N4CCC(OC)C4(C)C)nc(-c4c(N)cccc4F)c(Cl)c3OC[C@H]2C1 (stereo partly drawn) [Z506, (6aR)-8-acryloyl-3-(2-amino-6-fluorophenyl)-4-chloro-1-(3-methoxy-2,2-dimethylpyrrolidin-1-yl)-6,6a,7,8,9,10-hexahydro-12H-pyrazino[2,1-c]pyrido[3,4-f][1,4]oxazepin-12-one]
85 nM	5.8 nM	C=CC(=O)N1CCN2C(=O)c3c(N4CC(N5CCC(F)(F)C5)CC4(C)C)nc(-c4ccccc4F)c(Cl)c3OC[C@H]2C1 (stereo partly drawn) [Z532, (6aR)-8-acryloyl-4-chloro-1-(3,3-difluoro-5′,5′-dimethyl-[1,3′-bipyrrolidin]-1′-yl)-3-(2-fluorophenyl)-6,6a,7,8,9,10-hexahydro-12H-pyrazino[2,1-c]pyrido[3,4-f][1,4]oxazepin-12-one]
135 nM	19.3 nM	C=CC(=O)N1CCN2C(=O)c3c(N4CCN(C)C[C@@H]4C)nc(-c4c(F)cccc4Cl)c(Cl)c3OC[C@H]2C1 [Z547, (6aR)-8-acryloyl-4-chloro-3-(2-chloro-6-fluorophenyl)-1-((S)-2,4-dimethylpiperazin-1-yl)-6,6a,7,8,9,10-hexahydro-12H-pyrazino[2,1-c]pyrido[3,4-f][1,4]oxazepin-12-one]
184 nM	27.5 nM	C=CC(=O)N1CCN2C(=O)c3c(N4CCN(C)[C@@H](C)[C@@H]4C)nc(-c4ccccc4F)c(Cl)c3OC[C@H]2C1 [Z653, (R)-8-acryloyl-4-chloro-3-(2-fluorophenyl)-1-((2S,3S)-2,3,4-trimethylpiperazin-1-yl)-6,6a,7,8,9,10-hexahydro-12H-pyrazino[2,1-c]pyrido[3,4-f][1,4]oxazepin-12 (6aH)-one]
167 nM	15 nM	C=CC(=O)N1CCN2C(=O)c3c(N4C[C@H](N5CC(F)C5)CC4(C)C)nc(-c4ccccc4F)c(F)c3OC[C@H]2C1 [Z654-2, (R)-8-acryloyl-4-fluoro-1-((R)-4-(3-fluoroazetidin-1-yl)-2,2-dimethylpyrrolidin-1-yl)-3-(2-fluorophenyl)-6,6a,7,8,9,10-hexahydro-12H-pyrazino[2,1-c]pyrido[3,4-f][1,4]oxazepin-12-one]
24 nM	2.6 nM	C=CC(=O)N1CCN2C(=O)c3c(N4CC(N(C)CCO)CC4(C)C)nc(-c4ccccc4F)c(Cl)c3OC[C@H]2C1 (stereo partly drawn) [Z658, (6aR)-8-acryloyl-4-chloro-3-(2-fluorophenyl)-1-(4-((2-hydroxyethyl)(methyl)amino)-2,2-dimethylpyrrolidin-1-yl)-6,6a,7,8,9,10-hexahydro-12H-pyrazino[2,1-c]pyrido[3,4-f][1,4]oxazepin-12-one]
